Literature values, collected in patent publication US5118493A, “Composition having reduced nephrotoxocity comprising a fatty acid containing component and cyclosporine” (Brigham and Women's Hospital, priority 1991, dated 1992).

Tested on: rats treated with CSA

In the case of `Cc1c(Cn2ccnc2)c2ccccc2n1CCC(=O)O` [UK-38,485], the “glomerular filtration rate (GFR)” value is given as “improved” and the “urinary TxB2 levels” value is given as “comparable to control levels”.
